In patent EP0563345B1, “NOVEL 4-ARYLPIPERAZINES AND 4-ARYLPIPERIDINES” (MCNEILAB, INC., priority 1991, dated 1993):
Where a name gives a salt, the structure may show the parent alone. Read-outs that look alike come from different tables or passages of the source. Blank lines part the entries; values can stand above or below the molecule they belong to.

Experiments:
[1] = test system: male, Sprague-Dawley rats; experiment: Catalepsy Test in Rats; conditions: 50 mg/kg IP
Protocol: The catalepsy test is taken to evaluate the liability of anti-psychotics to produce extra-pyramidal side effects.
The forepaws of male, Sprague-Dawley rats obtained from Charles River (170-240 g) were gently placed on a black cork (3.5 cm high) and the time until the forepaw was removed was recorded. Each rat was given three trials with a maximum time of 60 sec on the cork. The sum of the three trials was taken as the score for each rat. Percent catalepsy was defined as the percent of 180 sec (maximum time) that a rat permitted its forepaw to rest on the cork. […] In each test session, two control groups were used; animals treated with saline (or vehicle) served as a negative control and animals treated with haloperidol were a positive control.

[2] = test system: Male Charles-River rats; experiment: Rat Glass Bead Test (propulsive motility of the distal colon); type: in vivo; conditions: mean expulsion time of glass bead
Protocol: The rat glass bead test is used to evaluate the action of compounds on propulsive motility of the distal colon. Male Charles-River rats weighing 50-90 grams are fasted for at least 18 hours in individual cages with water provided. Groups of rats are then dosed by the indicated route at the appropriate pretreatment time. A 4 mm glass bead is then inserted 3.5 cm into the distal colon through the anus using a 4 mm diameter glass rod. Rats are then placed in open top glass jars and observed for 60 minutes. The time for expulsion of the bead is noted for each rat. Rats not expelling the bead after 60 minutes are necropsied and the presence of the bead in the colon confirmed. […] Statistical analysis is done using one way analysis of variance and Fisher's LSD comparison. A probability of less than 0.05 is considered to be statistically significant.

[3] = target: T1, D-2 (dopamine-2) receptors (Rattus norvegicus, UniProt P61169); experiment: biochemical; type: binding, male, Wistar rats; conditions: rat striatum P2 fraction, 3H-spiperone 0.05 nM; read-out: Receptor Binding (Ki nM) D2
T1 construct: The D2 assay employed a P2 fraction from the striatum, the ligand ^3H-spiperone at a concentration of 0.05 nM; from tissue; host or cells: rat striatum, P2 fraction (synaptosomal membranes), male Wistar rats
T1 sequence (P61169 whole entry): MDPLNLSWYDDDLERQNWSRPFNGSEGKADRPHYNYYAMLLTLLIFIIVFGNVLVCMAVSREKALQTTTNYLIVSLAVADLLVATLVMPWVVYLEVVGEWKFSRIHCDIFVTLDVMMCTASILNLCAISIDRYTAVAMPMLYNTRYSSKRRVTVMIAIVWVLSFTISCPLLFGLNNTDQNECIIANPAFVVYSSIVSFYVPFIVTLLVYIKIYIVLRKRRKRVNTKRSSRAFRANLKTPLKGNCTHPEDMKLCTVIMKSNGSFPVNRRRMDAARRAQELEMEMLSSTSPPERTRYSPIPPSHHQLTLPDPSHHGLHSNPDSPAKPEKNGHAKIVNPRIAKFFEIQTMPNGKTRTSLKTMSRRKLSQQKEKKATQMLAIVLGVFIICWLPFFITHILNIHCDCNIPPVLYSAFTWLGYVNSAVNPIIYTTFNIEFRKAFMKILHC
Protocol: The dopamine D2 binding activity of compounds was determined using a P2 fraction (synaptosomal membranes) prepared from male, Wistar rats.
The data from this assay were analyzed by calculating the percent inhibition of the binding of the tritiated ligands by given concentrations of the test compound. Kl values, where given, were obtained from the logit analysis of concentration-inhibition curves.

[4] = test system: Male, Fischer 344 rats; experiment: Block of Conditioned Avoidance Responding (Rat) test (CAR); conditions: for CAR 5 mg/kg IP Administration (% change CAR) / CAR 15 mg/kg IP Administration (% change CAR): negative number = blockade of CAR
Method in brief: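 Trained rats at 90% avoidance ran 60-trial sessions with a 15-sec light/tone conditioned stimulus, then a 0.7 mA shock. Vehicle was given on Day 1 and test compound on Day 2, with matched route and pretreatment time. The % change in CAR versus Day 1 and % escape failures are group means, with escape loss at 5 mg/kg unless noted.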

[5] = Overall statement on the antipsychotic screens (CAR test and D-2 affinity); conditions: as far as tested
Description: The antipsychotic activity of the compounds of the invention may be determined by the Block of Conditioned Avoidance Responding (Rat) test (CAR), references being Cook, L. and E. Weidley in Ann.

[6] = test system: apomorphine-induced emesis in the dog; experiment: Block of Apomorphine-Induced Emesis In Dogs; type: in vivo; conditions: for ED50: Canis lupus familiaris, read-out: ED50 and 95% confidence limits, apomorphine HCl 1 mg/kg s.c.; for inhibition of apomorphine-induced emesis in the dog: in vivo
Protocol: This latter test is used in the preclinical evaluation of antipsychotics, and it also implies that the compounds could be used clinically for the treatment of emesis.
This procedure was modified from that described in Janssen, P. A. J.; Niemegeers, C. J. E.; Schellekens, K. Arzn.-Forch. […] The animals were treated with a test dose of apomorphine HCI to produce retching, and the effectiveness of a test compound in blocking that retching is determined. […] Following one of several pretreatments, a challenge dose of 1 mg/kg apomorphine HCl s.c. was given and the number of retches that occurred during the following 20 min period was recorded. At the start of the series, and after one week on testing, all dogs were pretreated with saline before the challenge dose of apomorphine HCI was administered. All of the saline-pretreated animals retched. […] Data were analyzed to determine the ED50 dose for blocking apomorphine HCI-induced emesis.

[7] = intravenous (IV) administration
[8] = oral administration, 1 h pretreatment
[9] = oral administration, 4 h pretreatment

SMILES: CC(C)Oc1ccccc1N1CCN(Cc2ccccc2C(=O)N2CCCCC2)CC1.Cl.Cl [Compound 111, 1-[2-[[4-[2-(1-Methylethoxy)phenyl]-1-piperazinyl]methyl]benzoyl]piperidine Dihydrochloride]
Catalepsy (%) ([1]; Pre-Reaction Time 60 min): 52%
Catalepsy (%) ([1]; Pre-Reaction Time 240 min): 50.7%
Glass bead expulsion time ([2]; IP, 1.0 mg/kg): 11 min

SMILES: CC1CCN(C(=O)c2cccc(CN3CCN(c4ccccc4OC(C)C)CC3)c2)CC1 [Compound 58]
Ki [3]: 9 nM
CAR 5 mg/kg IP Administration (% change CAR) [4]: -81%
(Escape Loss) % failures to escape ([4]; at CAR 5 mg/kg IP): 9%
Glass bead expulsion time ([2]; IP, 1.0 mg/kg): 29 min

SMILES: CC(O)COc1ccccc1N1CCN(Cc2cccc(C(=O)N3CCCCC3)c2)CC1 (stereo not shown) [Compound 27]
potential antipsychotic activity in either of the screens [5]: not exhibited potential antipsychotic activity
Ki [3]: 703 nM
CAR 15 mg/kg IP Administration (% change CAR) [4]: -8%
(Escape Loss) % failures to escape ([4]; at CAR 15 mg/kg IP): 0%

SMILES: CC(C)Oc1ccccc1N1CCN(Cc2cccc(C(=O)N3CCCCC3)c2)CC1 [Compound 53, 1-[3-[[4-[2-(1-Methylethoxy)phenyl]-1-piperazinyl]methyl]benzoyl]piperidine Hydrochloride (3:2)]
Catalepsy (%) ([1]; Pre-Reaction Time 60 min): 32.4%
Catalepsy (%) ([1]; Pre-Reaction Time 240 min): 47.9%
CAR IP Administration (% change CAR) at 7.5 mg/kg ([4]; 7.5 mg/kg IP): -91%
(Escape Loss) % failures to escape ([4]; at CAR 7.5 mg/kg IP): 8%
ED50 [6, 7]: 0.03 mg/kg
ED50 [6, 8]: 0.038 mg/kg
ED50 [6, 9]: 0.263 mg/kg
inhibition of apomorphine-induced emesis in the dog [6]: particularly potent inhibitors

SMILES: CC(C)Oc1cc(F)ccc1N1CCN(Cc2cccc(C(=O)N3CCOCC3)c2)CC1 [Compound 80]
Catalepsy (%) ([1]; Pre-Reaction Time 60 min): 84.8%
Catalepsy (%) ([1]; Pre-Reaction Time 240 min): 62.0%
Ki [3]: 79 nM
CAR 5 mg/kg IP Administration (% change CAR) [4]: -91%
(Escape Loss) % failures to escape ([4]; at CAR 5 mg/kg IP): 14%
Glass bead expulsion time ([2]; IP, 1.0 mg/kg): 14 min

SMILES: CC(C)Oc1ccccc1N1CCN(Cc2cccc(C(=O)N3CCCCCC3)c2)CC1.Cl [Compound 54, Hexahydro-1-[3-[[4-[2-(1-methylethoxy)phenyl]-1-piperazinyl]methyl]-benzoyl]-1H-azepine monohydrochloride]
CAR 5 mg/kg IP Administration (% change CAR) [4]: -88%
(Escape Loss) % failures to escape ([4]; at CAR 5 mg/kg IP): 5%
ED50 [6, 7]: 0.019 mg/kg
ED50 [6, 8]: 0.047 mg/kg
ED50 [6, 9]: 0.251 mg/kg
inhibition of apomorphine-induced emesis in the dog [6]: particularly potent inhibitors
Glass bead expulsion time ([2]; IP, 1.0 mg/kg): 16 min

SMILES: O=C(CCCN1CCC(O)(c2ccc(Cl)cc2)CC1)c1ccc(F)cc1 [Haloperidol, haloperidol, reference compound]
ED50 [6, 7]: 0.023 mg/kg
ED50 [6, 8]: 0.088 mg/kg
ED50 [6, 9]: 0.028 mg/kg

SMILES: CC(C)Oc1ccccc1N1CCN(Cc2cccc(S(=O)(=O)N3CCCCC3)c2)CC1 [Compound 105]
Ki [3]: 18 nM
CAR 5 mg/kg IP Administration (% change CAR) [4]: -7%
(Escape Loss) % failures to escape ([4]; at CAR 5 mg/kg IP): 0%
Glass bead expulsion time ([2]; PO, 10.0 mg/kg): 10 min

SMILES: CC(C)Oc1ccccc1N1CCN(Cc2cccc(C(=O)N3CCCC(C)(C)C3)c2)CC1 [Compound 57]
Ki [3]: 4.8 nM
CAR 5 mg/kg IP Administration (% change CAR) [4]: -86%
(Escape Loss) % failures to escape ([4]; at CAR 5 mg/kg IP): 25%
Glass bead expulsion time ([2]; IP, 1.0 mg/kg): 22 min

SMILES: COc1ccccc1N1CCN(Cc2cccc(C(=O)N3CCCCCCC3=O)c2)CC1 [Compound 86]
Ki [3]: 121 nM
CAR 15 mg/kg IP Administration (% change CAR) [4]: -27%
(Escape Loss) % failures to escape ([4]; at CAR 15 mg/kg IP): 17%
Glass bead expulsion time ([2]; IP, 1.0 mg/kg): 22 min

More lines, main results first:

Ki [3]: 29 nM
(Escape Loss) % failures to escape ([4]; at CAR 5 mg/kg IP): 42%
SMILES: COc1ccccc1N1CCN(Cc2cccc(C(=O)N3CCCCC3)c2)CC1 [Compound 84]
Catalepsy (%) ([1]; Pre-Reaction Time 60 min): 18.8%
Catalepsy (%) ([1]; Pre-Reaction Time 240 min): 33.9%
CAR 5 mg/kg IP Administration (% change CAR) [4]: -98%
Glass bead expulsion time ([2]; IP, 1.0 mg/kg): 42 min

Ki [3]: > 1000 nM
(Escape Loss) % failures to escape ([4]; at CAR 5 mg/kg IP): 0%
SMILES: O=C(c1cccc(CN2CCN(c3ccc4c(c3)OCO4)CC2)c1)N1CCCCC1 [Compound 36]
potential antipsychotic activity in either of the screens [5]: not exhibited potential antipsychotic activity
CAR 5 mg/kg IP Administration (% change CAR) [4]: -10%
Glass bead expulsion time ([2]; PO, 10.0 mg/kg): 7.4 min

Ki [3]: 121 nM
(Escape Loss) % failures to escape ([4]; at CAR 5 mg/kg IP): 1%
SMILES: CCOC(=O)N1CCN(C(=O)c2cccc(CN3CCN(c4ccccc4OC(C)C)CC3)c2)CC1 [Compound 63]
CAR 5 mg/kg IP Administration (% change CAR) [4]: -20%
Glass bead expulsion time ([2]; IP, 1.0 mg/kg): 41 min

Ki [3]: 11 nM
(Escape Loss) % failures to escape ([4]; at CAR 15 mg/kg IP): 7%
SMILES: COc1cc2c(cc1OC)CN(C(=O)c1cccc(CN3CCN(c4ccccc4OC(C)C)CC3)c1)CC2 [Compound 60]
CAR 15 mg/kg IP Administration (% change CAR) [4]: -93%
Glass bead expulsion time ([2]; IP, 1.0 mg/kg): 18 min

Ki [3]: 12 nM
(Escape Loss) % failures to escape ([4]; at CAR 5 mg/kg IP): 44%
SMILES: CC(C)Oc1cc(F)ccc1N1CCN(Cc2cccc(C(=O)N3CCCCCC3)c2)CC1 [Compound 79]
CAR 5 mg/kg IP Administration (% change CAR) [4]: -86%
Glass bead expulsion time ([2]; IP, 1.0 mg/kg): 17 min

Ki [3]: 41 nM
(Escape Loss) % failures to escape ([4]; at CAR 15 mg/kg IP): 0%
SMILES: CCCc1ccccc1N1CCN(Cc2cccc(C(=O)N3CCCCCC3)c2)CC1 [Compound 82]
CAR 15 mg/kg IP Administration (% change CAR) [4]: -8%
Glass bead expulsion time ([2]; IP, 1.0 mg/kg): 16 min

Ki [3]: 10.4 nM
(Escape Loss) % failures to escape ([4]; at CAR 5 mg/kg IP): 23%
SMILES: CC(C)Oc1ccccc1N1CCN(Cc2cccc(C(=O)N3CCN(c4ccccc4)CC3)c2)CC1 [Compound 62]
CAR 5 mg/kg IP Administration (% change CAR) [4]: -28%
Glass bead expulsion time ([2]; IP, 1.0 mg/kg): 21 min

Ki [3]: 1.2 nM
(Escape Loss) % failures to escape ([4]; at CAR 5 mg/kg IP): 2%
SMILES: CC(C)Oc1ccccc1C1CCN(Cc2cccc(C(=O)N3CCCCCC3)c2)CC1 [Compound 39]
Catalepsy (%) ([1]; Pre-Reaction Time 60 min): 17.3%
CAR 5 mg/kg IP Administration (% change CAR) [4]: -86%

Ki [3]: 18 nM
(Escape Loss) % failures to escape ([4]; at CAR 5 mg/kg IP): 0%
SMILES: O=C(c1cccc(CN2CCN(c3ccccc3Cl)CC2)c1)N1CCCCCC1 [Compound 93]
Catalepsy (%) ([1]; Pre-Reaction Time 60 min): 20.0%
Catalepsy (%) ([1]; Pre-Reaction Time 240 min): 1.9%
CAR 5 mg/kg IP Administration (% change CAR) [4]: -23%
Glass bead expulsion time ([2]; IP, 1.0 mg/kg): 25 min
